Experimental findings from ChEMBL document CHEMBL3638784, “Fused bicyclic oxazolidinone CETP inhibitor” (2014) are described below.

For this test, the target named is T1, Cholesteryl ester transfer protein (Homo sapiens, UniProt P11597).
T1 sequence (P11597 whole entry): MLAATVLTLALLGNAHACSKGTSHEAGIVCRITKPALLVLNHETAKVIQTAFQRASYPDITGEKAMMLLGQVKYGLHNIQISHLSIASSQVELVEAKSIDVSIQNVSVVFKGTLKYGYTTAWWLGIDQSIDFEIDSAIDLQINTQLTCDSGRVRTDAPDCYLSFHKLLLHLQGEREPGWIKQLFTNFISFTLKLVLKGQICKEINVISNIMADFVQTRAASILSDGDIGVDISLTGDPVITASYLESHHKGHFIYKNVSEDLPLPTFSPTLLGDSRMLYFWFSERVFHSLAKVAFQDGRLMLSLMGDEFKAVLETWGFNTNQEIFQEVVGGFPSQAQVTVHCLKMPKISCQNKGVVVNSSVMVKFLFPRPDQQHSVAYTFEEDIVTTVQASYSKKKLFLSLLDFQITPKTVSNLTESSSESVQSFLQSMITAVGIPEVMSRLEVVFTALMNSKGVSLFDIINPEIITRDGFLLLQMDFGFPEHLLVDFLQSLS
Nature of the test: Scintillation Proximity Assay (SPA): First, low density lipoprotein (LDL) (Meridian) was biotinylated by incubating LDL with biotin for 1 hour on ice, after which it was dialyzed to remove free biotin. Then compounds at varying concentrations were incubated with 15 nM CETP (reagent production group, In Vitro Pharmacology, MRL Rahway) and 50 ug/ml of the biotinylated LDL in 50 mM HEPES, 150 mM NaCl, pH 7.4, for 1 hour at 37° C. The reaction was started by adding 3H-cholesterol ester high density lipoprotein (HDL) (American Radiochemicals Corp) at a concentration of ~0.6 nM. The reaction proceeded for 2 hours at 37° C., after which time it was quenched by the addition of 12% acetic acid. PVT streptavadin-coated scintillation proximity beads, which had been brought to room temperature, were then added at a concentration of 4 mg/ml. The assay was then mixed and counted after one half hour in a Microbeta plate reader.

As usually defined, the IC50 is the concentration that gives 50% inhibition. The low end stands for greater potency, the high end for weaker potency. The molecule `N#Cc1cccc(-c2ccc(C(F)(F)F)cc2[C@@H]2CC[C@H]3[C@@H](c4cc(C(F)(F)F)cc(C(F)(F)F)c4)OC(=O)N23)c1` yielded an IC50 of 177 nM.
